Values of other authors as cited in PubChem BioAssay AID1259409 (Chemical Carcinogenesis Research Information System (CCRIS), 2018).

Tested on: rodent chemically induced tumor inhibition, incidence and multiplicity
Assay: CCRIS tumor inhibitor studies

CC(C)(C)N=C=O
tumour outcome (control, treated, inhibition, significance) (Carcinogen: 7,12-DIMETHYLBENZ(A)ANTHRACENE, 57-97-6, Dose [Inhibitor]: 0.013 MMOL/G IN DIET BEGINNING 1 WK AFTER CARCINOGEN ADMINISTRATION (STUDY DURATION: 23 WK), Route [Inhibitor]: ORAL, Species: RAT, Strain/Sex: SPRAGUE-DAWLEY/FEMALE, Target Tissue: Type of Lesion: MAMMARY GLAND: TUMOR, Dose [Carcinogen]: 12 MG DMBA IN 1.0 ML OLIVE OIL ONCE, Promoter: NONE USED): 100%, 50%, 50%, p<0.001

[O]=[W](=[O])([OH])[OH]
outcome (Carcinogen: N-NITROSO-N-METHYLUREA, 684-93-5, Dose [Inhibitor]: 0, 150 PPM IN DRINKING WATER BEGINNING AT 35 D OF AGE (STUDY DURATION:198 D), Route [Inhibitor]: ORAL, Species: RAT, Strain/Sex: SPRAGUE-DAWLEY/FEMALE, Target Tissue: Type of Lesion: MAMMARY GLAND: CARCINOMA, Dose [Carcinogen]: 5 MG/100 G BW ONCE AT 50 D OF AGE, Promoter: NONE USED): 50%, 79%, -58%, p<0.05 at 125 d; 91%, 96%, -5%, not calculated at 198 d
tumour outcome (control, treated, inhibition, significance) (Carcinogen: N-NITROSOSARCOSINE ETHYL ESTER, 1130-69-4, Dose [Inhibitor]: 100 PPM IN DRINKING WATER DAILY FOR 19 WK STARTING 3 WK PRIOR TO START OF CARCINOGEN TREATMENT (STUDY DURATION: 19 WK), Route [Inhibitor]: ORAL, Species: RAT, Strain/Sex: SPRAGUE-DAWLEY/MALE, Target Tissue: Type of Lesion: ESOPHAGUS: CARCINOMA, Dose [Carcinogen]: 10 ML/KG BW 2/WK FOR 8 WK, Promoter: NONE USED): 80%, 80%, 0%, not significant
tumour outcome (control, treated, inhibition, significance) (Carcinogen: N-NITROSOSARCOSINE ETHYL ESTER, 1130-69-4, Dose [Inhibitor]: 100 PPM IN DRINKING WATER DAILY FOR 19 WK STARTING 3 WK PRIOR TO START OF CARCINOGEN TREATMENT (STUDY DURATION: 19 WK), Route [Inhibitor]: ORAL, Species: RAT, Strain/Sex: SPRAGUE-DAWLEY/MALE, Target Tissue: Type of Lesion: FORESTOMACH: CARCINOMA, Dose [Carcinogen]: 10 ML/KG BW 2/WK FOR 8 WK, Promoter: NONE USED): 70%, 80%, -14%, not significant
tumour outcome (control, treated, inhibition, significance) (Carcinogen: N-NITROSOSARCOSINE ETHYL ESTER, 1130-69-4, Dose [Inhibitor]: 100 PPM IN DRINKING WATER DAILY FOR 30 WK STARTING 3 WK PRIOR TO START OF CARCINOGEN TREATMENT (STUDY DURATION: 30 WK), Route [Inhibitor]: ORAL, Species: RAT, Strain/Sex: SPRAGUE-DAWLEY/MALE, Target Tissue: Type of Lesion: ESOPHAGUS: CARCINOMA, Dose [Carcinogen]: 10 ML/KG BW 2/WK FOR 8 WK, Promoter: NONE USED): 91%, 86%, 5%, not significant
tumour outcome (control, treated, inhibition, significance) (Carcinogen: N-NITROSOSARCOSINE ETHYL ESTER, 1130-69-4, Dose [Inhibitor]: 100 PPM IN DRINKING WATER DAILY FOR 30 WK STARTING 3 WK PRIOR TO START OF CARCINOGEN TREATMENT (STUDY DURATION: 30 WK), Route [Inhibitor]: ORAL, Species: RAT, Strain/Sex: SPRAGUE-DAWLEY/MALE, Target Tissue: Type of Lesion: FORESTOMACH: CARCINOMA, Dose [Carcinogen]: 10 ML/KG BW 2/WK FOR 8 WK, Promoter: NONE USED): 100%, 100%, 0%, not significant

C[C@H]1O[C@@H](O[C@H]2[C@@H](O)C[C@H](O[C@H]3[C@@H](O)C[C@H](O[C@H]4CC[C@@]5(C)[C@H](CC[C@@H]6[C@@H]5CC[C@]5(C)[C@@H](C7=CC(=O)OC7)CC[C@]65O)C4)O[C@@H]3C)O[C@@H]2C)C[C@H](O)[C@@H]1O
tumour outcome (control, treated, inhibition, significance) (Carcinogen: 4-NITROQUINOLINE-N-OXIDE, 56-57-5, Dose [Inhibitor]: 0, 0.25 MG/100 ML IN DRINKING WATER FOR 20 WK BEGINNING 5 WK POST CARCINOGEN DOSE (STUDY DURATION: 25 WK), Route [Inhibitor]: ORAL, Species: MOUSE, Strain/Sex: ICR/FEMALE, Target Tissue: Type of Lesion: LUNG: TUMOR, Dose [Carcinogen]: 0.3 MG ONCE, Promoter: GLYCEROL, 56-81-5): 100%, 53%, 47%, not calculated
tumour outcome (control, treated, inhibition, significance) (Carcinogen: 7,12-DIMETHYLBENZ[A]ANTHRACENE, 57-97-6, Dose [Inhibitor]: 0, 85 NMOL IN ACETONE 2/WK 1 HR PRIOR TO EACH PROMOTER DOSE FOR 20 WK (STUDY DURATION: 21 WK), Route [Inhibitor]: DERMAL, Species: MOUSE, Strain/Sex: ICR/FEMALE, Target Tissue: Type of Lesion: SKIN: PAPILLOMA, Dose [Carcinogen]: 100 UG IN ACETONE ONCE, Promoter: 12-O-TETRADECANOYLPHORBOL-13-ACETATE, 16561-29-8): 100%, 80%, 20%, not calculated

O=c1ccc2ccccc2o1
tumour outcome (control, treated, inhibition, significance) (Carcinogen: 7,12-DIMETHYLBENZ(A)ANTHRACENE, 57-97-6, Dose [Inhibitor]: 0.034 MMOL/G IN DIET BEGINNING 1 D PRIOR TO CARCINOGEN DOSE AND CONTINUING FOR 8 D (STUDY DURATION: 23 WK), Route [Inhibitor]: ORAL, Species: RAT, Strain/Sex: SPRAGUE-DAWLEY/FEMALE, Target Tissue: Type of Lesion: MAMMARY GLAND: TUMOR, Dose [Carcinogen]: 12 MG IN 1.0 ML OLIVE OIL ONCE, Promoter: NONE USED): 86%, 31%, 64%, p<0.01
tumour outcome (control, treated, inhibition, significance) (Carcinogen: 7,12-DIMETHYLBENZ[A]ANTHRACENE, 57-97-6, Dose [Inhibitor]: 0.068 MMOL/G IN DIET BEGINNING 7 D PRIOR TO CARCINOGEN DOSE AND CONTINUING FOR 8 D (STUDY DURATION: 23 WK), Route [Inhibitor]: ORAL, Species: RAT, Strain/Sex: SPRAGUE-DAWLEY/FEMALE, Target Tissue: Type of Lesion: MAMMARY GLAND: TUMOR, Dose [Carcinogen]: 12 MG IN 1.0 ML OLIVE OIL, Promoter: NONE USED): 86%, 14%, 84%, p<0.01,
tumour outcome (control, treated, inhibition, significance) (Carcinogen: BENZO[A]PYRENE, 50-32-8, Dose [Inhibitor]: 0.068 MMOL/G IN DIET FOR 5 WK BEGINNING 1 WK PRIOR TO CARCINOGEN TREATMENT (STUDY DURATION: 21 WK), Route [Inhibitor]: ORAL, Species: MOUSE, Strain/Sex: ICR/FEMALE, Target Tissue: Type of Lesion: FORESTOMACH: TUMOR, Dose [Carcinogen]: 1 MG IN 0.2 ML CORN OIL, 2/WK FOR 4 WK, Promoter: NONE USED): 100%, 61%, 39%, p<0.05

COc1ccc2cc1Oc1ccc(cc1)C[C@H]1c3c(cc4c(c3Oc3cc5c(cc3OC)CCN(C)[C@@H]5C2)OCO4)CCN1C
tumour outcome (control, treated, inhibition, significance) (Carcinogen: 7,12-DIMETHYLBENZ[A]ANTHRACENE, 57-97-6, Dose [Inhibitor]: 0, 0.005% IN DIET BEGINNING 1 D POST CARCINOGEN TREATMENT AND CONTINUING FOR DURATION OF STUDY (STUDY DURATION: 18 WK), Route [Inhibitor]: ORAL, Species: MOUSE, Strain/Sex: ICR/FEMALE, Target Tissue: Type of Lesion: SKIN: PAPILLOMA, Dose [Carcinogen]: 50 UG IN 100 µL ACETONE ONCE, Promoter: 12-O-TETRADECANOYLPHORBOL-13-ACETATE, 16561-29-8): 100%, 95%, 5%, not significant
tumour outcome (control, treated, inhibition, significance) (Carcinogen: 7,12-DIMETHYLBENZ[A]ANTHRACENE, 57-97-6, Dose [Inhibitor]: 0, 0.005% IN DIET BEGINNING 1 D POST CARCINOGEN TREATMENT AND CONTINUING FOR DURATION OF STUDY (STUDY DURATION: 25 WK), Route [Inhibitor]: ORAL, Species: MOUSE, Strain/Sex: ICR/FEMALE, Target Tissue: Type of Lesion: SKIN: PAPILLOMA, Dose [Carcinogen]: 50 UG IN 100 µL ACETONE ONCE, Promoter: 12-O-TETRADECANOYLPHORBOL-13-ACETATE, 16561-29-8, MEZEREIN, 34807-41-5, Promoter: 12-O-TETRADECANOYLPHORBOL-13-ACETATE, 16561-29-8, MEZEREIN, 34807-41-5): 75%, 45%, 40%, not calculated
tumour outcome (control, treated, inhibition, significance) (Carcinogen: 7,12-DIMETHYLBENZ[A]ANTHRACENE, 57-97-6, Dose [Inhibitor]: 0, 2 UMOL 2/WK 30 MIN PRIOR TO EACH PROMOTER DOSE BEGINNING 1 WK POST CARCINOGEN DOSE (STUDY DURATION: 18 WK), Route [Inhibitor]: DERMAL, Species: MOUSE, Strain/Sex: ICR/FEMALE, Target Tissue: Type of Lesion: SKIN: PAPILLOMA, Dose [Carcinogen]: 50 UG ONCE, Promoter: 12-O-TETRADECANOYLPHORBOL-13-ACETATE, 16561-29-8): 100%, 27%, 73%, not calculated
tumour outcome (control, treated, inhibition, significance) (Carcinogen: 7,12-DIMETHYLBENZ[A]ANTHRACENE, 57-97-6, Dose [Inhibitor]: 0, 20 UMOL/MOUSE 2/WK FOR 18 WK APPLIED 5 MIN PRIOR TO EACH PROMOTER DOSE (STUDY DURATION: 19 WK), Route [Inhibitor]: DERMAL, Species: MOUSE, Strain/Sex: CD-1/FEMALE, Target Tissue: Type of Lesion: SKIN: PAPILLOMA, Dose [Carcinogen]: 100 UG IN 200 µL ACETONE ONCE, Promoter: 12-O-TETRADECANOYLPHORBOL-13-ACETATE, 16561-29-8): 100%, 30%, 70%, p<0.01

NCC[Se][Se]CCN
tumour outcome (control, treated, inhibition, significance) (Carcinogen: 7,12-DIMETHYLBENZ[A]ANTHRACENE, 57-97-6, Dose [Inhibitor]: 0, 0.000025 MOL/KG DIET BEGINNING 2 WK PRIOR TO CARCINOGEN AND CONTINUED FOR STUDY DURATION (STUDY DURATION: 25 WK), Route [Inhibitor]: ORAL, Species: RAT, Strain/Sex: CD-1/FEMALE, Target Tissue: Type of Lesion: MAMMARY GLAND: ADENOCARCINOMA, Dose [Carcinogen]: 10 MG ONCE, Promoter: NONE USED): 18/25 (72%), 14/25 (56%), 22%, not significant
tumour outcome (control, treated, inhibition, significance) (Carcinogen: 7,12-DIMETHYLBENZ[A]ANTHRACENE, 57-97-6, Dose [Inhibitor]: 0, 0.00004 MOL/KG DIET BEGINNING 2 WK PRIOR TO CARCINOGEN AND CONTINUED FOR STUDY DURATION (STUDY DURATION: 25 WK), Route [Inhibitor]: ORAL, Species: RAT, Strain/Sex: CD-1/FEMALE, Target Tissue: Type of Lesion: MAMMARY GLAND: ADENOCARCINOMA, Dose [Carcinogen]: 10 MG ONCE, Promoter: NONE USED): 18/25 (72%), 11/25 (44%), 39%, p<0.05
